From patent US20070060534A1, “Anthracycline analogs” (Threshold Pharmaceuticals, Inc., priority 2005, published 2007)
“And” between values parts separate entries of the source, which are not always exact repeats. Identical values can stand only once. Like-named read-outs stand apart in the source and are kept apart here.

Tested on: H460 cells
Assay: Cytotoxicity: anti-proliferation activity on H460 cells, multi-well Alamar Blue based assay
Type: cell-based
Method: Cell growth in the presence and absence of the test compound was compared following a multi-well Alamar Blue based assay, and measured by a fluorescence plate reader at 550 nm excitation and 590 nm emission (see Biosource International Inc., Tech Application Notes, Use of Alamar Blue in the measurement of Cell Viability and Toxicity, Determining IC50). H460 cells (ATCC HTB-177 (NCl—H40), 4,000 cells/well/200 μl) were seeded in a 96 well plate in RPMI medium (Invitrogen Corporation, Carlsbad, Calif.). After 24 hours, these plates were divided into 3 groups—Control group, 2 h treatment group and 3 day treatment group. A test compound was added in a range of concentration to each plate in the treatment groups (2 h and 3 day). In the 2 h treatment group, after 2 h, the H460 cells were rinsed to remove the test compound, incubated for 3 days, and stained with AlamarBlue. The cells in the 3-day treatment group were incubated along with the test compound for 3 days, followed by staining with AlamarBlue. In the Control group, AlamarBlue was added to the plate at (i) day 0 and (ii) day 3 and the fluorescence emission measured to establish the control reading. In all the groups, the capacity of the cells to proliferate was measured 6 hours after addition of AlamarBlue by a fluorescence plate reader at 550 nm excitation and 590 nm emission.

[1] = Homo sapiens, NCI-H460, 2 h, read-out: GI90
[2] = Homo sapiens, NCI-H460, 72 h, read-out: GI50 (concentration required to inhibit cellular proliferation by 50%)
[3] = Homo sapiens, NCI-H460, 72 h, read-out: GI90
[4] = Homo sapiens, NCI-H460, read-out: GI50 (concentration required to inhibit cellular proliferation by 50%)
[5] = read-out: GI90 (the source's name)
[6] = Homo sapiens, NCI-H460, 72 h, H460 cells, 3 day incubation with compound, AlamarBlue, read-out: GI50 (concentration required to inhibit cellular proliferation by 50%)
[7] = Homo sapiens, NCI-H460, 72 h, H460 cells, 3 day incubation with compound, AlamarBlue, read-out: GI90 (the source's name)
[8] = Homo sapiens, NCI-H460, H460 cells, 2 h treatment, rinsed, then incubated for 3 days, AlamarBlue, read-out: GI50 (concentration required to inhibit cellular proliferation by 50%)
[9] = Homo sapiens, NCI-H460, H460 cells, 2 h treatment, rinsed, then incubated for 3 days, AlamarBlue, read-out: GI90 (the source's name)
[10] = read-out: GI50 (concentration required to inhibit cellular proliferation by 50%)

SMILES | IC90 [1] | GI50 [2] | IC90 [3] | GI50 [4] | also measured
COc1cccc2c1C(=O)c1c(O)c3c(c(O)c1C2=O)C[C@@](O)(C(C)=O)C[C@@H]3O[C@H]1CC(N2CCOCC2O)C(O)[C@H](C)O1 (some centres unmarked) [Compound 59] | 1000 nM | 50 nM | 200 nM | 200 nM | 
COc1cccc2c1C(=O)c1c(O)c3c(c(O)c1C2=O)C[C@@](O)(C(=O)COC(=O)OCc1cnc([N+](=O)[O-])n1C)C[C@@H]3O[C@H]1CC(N2CCOCC2C#N)[C@H](O)[C@H](C)O1 (some centres unmarked) [Compound 60] | 2.5 nM | 0.1 nM | 0.2 nM | 0.79 nM | 
COc1cccc2c1C(=O)c1c(O)c3c(c(O)c1C2=O)C[C@@](O)(C(C)=O)C[C@@H]3O[C@H]1CC2C(OC3CN(C(=O)OCc4cnc([N+](=O)[O-])n4C)CCN32)[C@H](C)O1 (some centres unmarked) [Compound 28] | 0.1 nM | 0.4 nM | 1.26 nM | 0.03 nM | 
COc1cccc2c1C(=O)c1c(O)c3c(c(O)c1C2=O)CC(O)(C(C)=O)CC3OC1CC(N2CCN(C(=O)OCC3c4ccccc4-c4ccccc43)CC2)C(O)C(C)O1 (centres unmarked) [Compound 44] |  |  |  |  | IC90 [5]: 501 nM
COc1cccc2c1C(=O)c1c(O)c3c(c(O)c1C2=O)C[C@@](O)(C(O)CO)C[C@@H]3O[C@H]1CC(N2CCN(C(=O)OC(C)(C)C)CC2)[C@H](O)[C@H](C)O1 (some centres unmarked) [Compound 49] | 158 nM | 20 nM | 100 nM | 63.1 nM | 
COCCOC(=O)N1CCN(C2C[C@H](O[C@H]3C[C@](O)(C(C)=O)Cc4c(O)c5c(c(O)c43)C(=O)c3c(OC)cccc3C5=O)O[C@H](C)C2O)C(C#N)C1 (some centres unmarked) [Compound 14] | 0.4 nM | 0.2 nM | 0.63 nM | 0.2 nM | 
COc1cccc2c1C(=O)c1c(O)c3c(c(O)c1C2=O)C[C@@](O)(C(C)=O)C[C@@H]3O[C@H]1CC(NC(C#N)COCCCl)C(O)[C@H](C)O1 (some centres unmarked) [Compound 53] |  | 2.5 nM |  | 15.8 nM | 
COc1cccc2c1C(=O)c1c(O)c3c(c(O)c1C2=O)C[C@@](O)(C(C)=O)C[C@@H]3O[C@H]1CC(N2CCN(C(=O)C(F)(F)F)CC2)C(O)[C@H](C)O1 (some centres unmarked) [Compound 45] |  |  |  |  | IC90 [5]: 1000 nM and 630 nM
COc1cccc2c1C(=O)c1c(O)c3c(c(O)c1C2=O)C[C@@](O)(C(C)=O)C[C@@H]3O[C@@H]1CC(N2CCN(C(=O)OCc3ccc([N+](=O)[O-])o3)CC2C#N)C(O)[C@H](C)O1 (some centres unmarked) [Compound 5] |  |  |  |  | GI50 [6]: 1 nM; IC90 [7]: 4 nM; GI50 [8]: 3.2 nM; IC90 [9]: 10 nM
COc1cccc2c1C(=O)c1c(O)c3c(c(O)c1C2=O)C[C@@](O)(C(C)=O)C[C@@H]3O[C@H]1CC(N2CCN(C(=O)OCc3cnc([N+](=O)[O-])n3C)CC2C#N)C(O)[C@H](C)O1 (some centres unmarked) [Compound 3] |  |  |  |  | GI50 [10]: 2.5 nM and 1.3 nM; IC90 [5]: 7.90 nM and 4.00 nM
COc1cccc2c1C(=O)c1c(O)c3c(c(O)c1C2=O)CC(O)(C(C)=O)CC3OC1CC(N2CCN(C(C)=O)CC2)C(O)C(C)O1 (centres unmarked) [Compound 46] |  |  |  |  | IC90 [5]: 158.50 nM and 100.00 nM
COc1cccc2c1C(=O)c1c(O)c3c(c(O)c1C2=O)C[C@]1(O)C[C@@H]3O[C@H]2CC([C@H](O)[C@H](C)O2)N2CCOCC2OCC1=O (some centres unmarked) [Compound 58] |  |  |  |  | GI50 [6]: 0.14 nM; IC90 [7]: 0.6 nM; GI50 [8]: 0.3 nM; IC90 [9]: 1 nM
COc1cccc2c1C(=O)c1c(O)c3c(c(O)c1C2=O)C[C@@](O)(C(C)=O)C[C@@H]3O[C@H]1CC(N2CCOCC2C#N)C(OC(=O)OCC(C)C)[C@H](C)O1 (some centres unmarked) [Compound 57] | 316 nM | 1.58 nM | 10 nM | 125 nM | 
COCCOC(=O)N1CCN2C(C1)OC1C2C[C@H](O[C@H]2C[C@](O)(C(=O)CO)Cc3c(O)c4c(c(O)c32)C(=O)c2c(OC)cccc2C4=O)O[C@@H]1C (some centres unmarked) [Compound 50] |  |  |  |  | GI50 [6]: 0.16 nM; IC90 [7]: 0.32 nM; GI50 [8]: 0.13 nM; IC90 [9]: 0.4 nM
COc1cccc2c1C(=O)c1c(O)c3c(c(O)c1C2=O)C[C@@](O)(C(C)=O)C[C@@H]3O[C@H]1CC(N2CCN(C(=O)OCc3cnc([N+](=O)[O-])n3C)CC2)C(O)[C@H](C)O1 (some centres unmarked) [Compound 33] |  |  |  |  | GI50 [10]: 20 nM and 10 nM; IC90 [5]: 79 nM and 50 nM
COc1cccc2c1C(=O)c1c(O)c3c(c(O)c1C2=O)C[C@@](O)(C(C)=O)C[C@@H]3O[C@H]1CC(NC(C#N)COCCOS(=O)(=O)c2ccc(C)cc2)C(O)[C@H](C)O1 (some centres unmarked) [Compound 52] |  |  |  | 0.3 nM | 
COc1cccc2c1C(=O)c1c(O)c3c(c(O)c1C2=O)C[C@@](O)(C(O)CO)C[C@@H]3O[C@H]1CC(N2CCN(C(=O)OC(C)(C)C)CC2C#N)[C@H](O)[C@H](C)O1 (some centres unmarked) [Compound 13] | 50.1 nM | 4 nM | 20 nM | 10 nM | 
COc1cccc2c1C(=O)c1c(O)c3c(c(O)c1C2=O)C[C@@](O)(C(C)=O)C[C@@H]3O[C@H]1CC(N2CCN(C(=O)CC(C)(C)C)CC2)C(O)[C@H](C)O1 (some centres unmarked) [Compound 48] | 398 nM | 63.1 nM | 200 nM | 141 nM | 
COc1cccc2c1C(=O)c1c(O)c3c(c(O)c1C2=O)C[C@@](O)(C(C)=O)C[C@@H]3O[C@H]1CC(N2CCN(C(=O)OCC(C)C)CC2)C(O)[C@H](C)O1 (some centres unmarked) [Compound 47] | 398 nM | 20 nM | 100 nM | 126 nM | 
COc1cccc2c1C(=O)c1c(O)c3c(c(O)c1C2=O)C[C@@](O)(C(C)=O)C[C@@H]3O[C@H]1CC(NC(COCCOS(=O)(=O)c2ccc(C)cc2)OC)C(O)[C@H](C)O1 (some centres unmarked) [Compound 51] |  |  |  | 2.5 nM | 
